Measurements taken from patent US8293764B2, “Compositions and methods for disruption of BRCA2-Rad51 interaction” (The Regents of the University of California, priority 2004, dated 2012).
Peptide text beside a SMILES is read from it. * marks the point of attachment. Cbz = O=C(OCc1ccccc1)*

Tested on: Rad51 in MCF-7 cells
Assay: Rad51 stability assay with cyclohexamide
Assay type: cell-based
Details: 1 μM MG132, IBR2 treated and control cells
From the text: To examine the impact of IBR2 on Rad51 protein expression, IBR2 treated MCF-7 cells was examined by straight western blot probed with a panel of antibodies against BRCA2, Rad51, Rad50, p84 and Rb. […] Consistent with our FACS analysis (FIG. 4A), the hypo-phosphorylated form of Rb, a marker for G1 phase, was the major form observed in the later time points, further confirming that IBR2 arrests cells at G1 phase (FIG. 4A). It has been reported that BRCA2 level is cell cycle dependent, which expresses low in G1 phase and peaks at G1/S boundary. Therefore the decreased level of BRCA2 in IBR2 treated cells may be due to G1 phase arrest. Different from BRCA2 protein, Rad51 protein is expressed constant throughout the cell cycle in MCF-7 cells (data not shown). Therefore, loss of Rad51 protein may be the direct effect of IBR2 treatment instead of the consequence of G1 arrest. […]
Western blot analysis: Cells were treated with […] or 50 μg/ml cycloheximide (CHX) or 1 μM MG132 and harvested at different time points for western blot analysis. […] The intensity of bands was quantified by densitometry using Labworks 4.5 software. The relative value of the band intensity was calculated with respect to that of untreated sample after normalization with the p84 signal.

## CC(C)C[C@@H](C=O)NC(=O)[C@H](CC(C)C)NC(=O)[C@H](CC(C)C)NC(=O)OCc1ccccc1 [MG132, reference compound] (Cbz-Leu-Leu-Leu-aldehyde)
  half-life of Rad51 with addition of MG132: prolonged
